System: MV-4-11 cells
Test: Gene expression microarray analysis (Affymetrix PrimeView) and GSEA
Format: cell-based, human
Set-up: RFU PODN (11730768_x_at) / Fold change /veh PODN (11730768_x_at) / RFU LINC00158 (11744669_a_at) / Fold change /veh LINC00158 (11744669_a_at) / RFU DUSP10 (11751237_a_at) / Fold change /veh DUSP10 (11751237_a_at) / RFU ID3 (11757404_x_at) / Fold change /veh ID3 (11757404_x_at) / RFU PLEKHG5 (11737974_s_at) / Fold change /veh PLEKHG5 (11737974_s_at) / RFU LRRC4B (11730491_at) / Fold change /veh LRRC4B (11730491_at) / RFU GIMAP4 (11747438_a_at) / Fold change /veh GIMAP4 (11747438_a_at) / RFU KRT8 (11758183_x_at) / Fold change /veh KRT8 (11758183_x_at) / RFU CNN1 (11734310_a_at) / Fold change /veh CNN1 (11734310_a_at) / RFU VPS37D (11726825_at) / Fold change /veh VPS37D (11726825_at) / RFU C10orf10 (11716522_x_at) / Fold change /veh C10orf10 (11716522_x_at) / RFU KIR2DL2 /// KIR2DL4 /// KIR2DL5A /// KIR2DL5B /// KIR2DS1 /// KIR2DS2 /// KIR2DS3 /// KIR2DS4 /// KIR3DL3 /// KIR3DL3 /// KIR3DS1 (11738374_at) / Fold change /veh KIR2DL2 /// KIR2DL4 /// KIR2DL5A /// KIR2DL5B /// KIR2DS1 /// KIR2DS2 /// KIR2DS3 /// KIR2DS4 /// KIR3DL3 /// KIR3DL3 /// KIR3DS1 (11738374_at) / RFU C1QL1 (11718748_at) / Fold change /veh C1QL1 (11718748_at) / RFU TMPRSS4 (11747572_a_at) / Fold change /veh TMPRSS4 (11747572_a_at) / RFU HAMP (11756126_x_at) / Fold change /veh HAMP (11756126_x_at) / RFU RNFT2 (11725882_a_at) / Fold change /veh RNFT2 (11725882_a_at) / RFU NR4A2 (11747474_a_at) / Fold change /veh NR4A2 (11747474_a_at) / RFU ABCC12 (11746883_a_at) / Fold change /veh ABCC12 (11746883_a_at) / RFU TMEM136 (11760407_x_at) / Fold change /veh TMEM136 (11760407_x_at) / RFU CLDN22 /// WWC2 (11732394_at) / Fold change /veh CLDN22 /// WWC2 (11732394_at) / RFU HLA-DPB1 (11760878_x_at) / Fold change /veh HLA-DPB1 (11760878_x_at) / RFU SPINT1 (11716480_a_at) / Fold change /veh SPINT1 (11716480_a_at) / RFU GAP43 (11754022_s_at) / Fold change /veh GAP43 (11754022_s_at) / RFU A4GNT (11735810_at) / Fold change /veh A4GNT (11735810_at) / RFU PRB3 (11715151_x_at) / Fold change /veh PRB3 (11715151_x_at) / RFU TUBB4B (11761932_at) / Fold change /veh TUBB4B (11761932_at) / RFU CAPN14 (11732068_a_at) / Fold change /veh CAPN14 (11732068_a_at) / RFU TMCC2 (11721928_a_at) / Fold change /veh TMCC2 (11721928_a_at) / RFU IRGQ (11745062_a_at) / Fold change /veh IRGQ (11745062_a_at) / RFU FAM174B (11720279_a_at) / Fold change /veh FAM174B (11720279_a_at) / RFU TMPRSS4 (11748680_a_at) / Fold change /veh TMPRSS4 (11748680_a_at) / RFU FAM212B (11763350_a_at) / Fold change /veh FAM212B (11763350_a_at) / RFU PLEKHG5 (11743358_a_at) / Fold change /veh PLEKHG5 (11743358_a_at) / RFU ZSCAN30 (11745921_a_at) / Fold change /veh ZSCAN30 (11745921_a_at) / RFU CMKLR1 (11741424_a_at) / Fold change /veh CMKLR1 (11741424_a_at) / RFU LOC101060620 /// MAPK8IP1 (11723275_at) / Fold change /veh LOC101060620 /// MAPK8IP1 (11723275_at) / RFU SPTSSB (11747773_x_at) / Fold change /veh SPTSSB (11747773_x_at) / RFU PRSS12 (11739890_at) / Fold change /veh PRSS12 (11739890_at) / RFU BIN1 (11741810_x_at) / Fold change /veh BIN1 (11741810_x_at) / RFU WNT11 (11732464_a_at) / Fold change /veh WNT11 (11732464_a_at) / RFU C10orf10 (11716521_a_at) / Fold change /veh C10orf10 (11716521_a_at) / RFU C5orf56 (11738089_at) / Fold change /veh C5orf56 (11738089_at) / RFU CYB561 (11721691_x_at) / Fold change /veh CYB561 (11721691_x_at) / RFU ANKRD19P (11752326_a_at) / Fold change /veh ANKRD19P (11752326_a_at) / RFU OR2T12 /// OR2T33 /// OR2T8 (11738714_s_at) / Fold change /veh OR2T12 /// OR2T33 /// OR2T8 (11738714_s_at) / RFU VCAN (11748164_a_at) / Fold change /veh VCAN (11748164_a_at) / RFU JSRP1 (11732532_at) / Fold change /veh JSRP1 (11732532_at) / RFU KRTAP10-11 (11738290_x_at) / Fold change /veh KRTAP10-11 (11738290_x_at) / RFU MYO3A (11730013_a_at) / Fold change /veh MYO3A (11730013_a_at) / RFU EBF3 (11725865_a_at) / Fold change /veh EBF3 (11725865_a_at) / RFU CAMK2N1 (11719241_x_at) / Fold change /veh CAMK2N1 (11719241_x_at) / RFU C5orf56 (11738088_a_at) / Fold change /veh C5orf56 (11738088_a_at) / RFU OLFML3 (11715873_a_at) / Fold change /veh OLFML3 (11715873_a_at) / RFU LOC100653217 /// NTM (11731650_a_at) / Fold change /veh LOC100653217 /// NTM (11731650_a_at) / RFU MAPK11 (11762145_a_at) / Fold change /veh MAPK11 (11762145_a_at) / RFU FIZ1 (11724087_x_at) / Fold change /veh FIZ1 (11724087_x_at) / RFU OASL (11726364_x_at) / Fold change /veh OASL (11726364_x_at) / RFU SOX15 (11748057_x_at) / Fold change /veh SOX15 (11748057_x_at) / RFU CD79A (11719716_a_at) / Fold change /veh CD79A (11719716_a_at) / RFU HIST1H1D (11736915_at) / Fold change /veh HIST1H1D (11736915_at) / RFU CASKIN2 (11723855_a_at) / Fold change /veh CASKIN2 (11723855_a_at) / RFU LOC730098 (11760151_x_at) / Fold change /veh LOC730098 (11760151_x_at) / RFU OR4N2 (11742367_at) / Fold change /veh OR4N2 (11742367_at) / RFU PRRT2 (11749266_a_at) / Fold change /veh PRRT2 (11749266_a_at) / RFU SNX32 (11753110_a_at) / Fold change /veh SNX32 (11753110_a_at) / RFU CDHR5 (11726645_a_at) / Fold change /veh CDHR5 (11726645_a_at) / RFU RCAN1 (11760418_a_at) / Fold change /veh RCAN1 (11760418_a_at) / RFU FAM167A (11723789_a_at) / Fold change /veh FAM167A (11723789_a_at) / RFU FAM26E (11764081_at) / Fold change /veh FAM26E (11764081_at) / RFU ISYNA1 (11749810_s_at) / Fold change /veh ISYNA1 (11749810_s_at) / RFU ACY1 (11761880_at) / Fold change /veh ACY1 (11761880_at) / RFU 11764098_at / Fold change /veh 11764098_at / RFU SAMD14 (11745864_x_at) / Fold change /veh SAMD14 (11745864_x_at) / RFU NPB (11741838_a_at) / Fold change /veh NPB (11741838_a_at) / RFU TMPRSS6 (11731388_a_at) / Fold change /veh TMPRSS6 (11731388_a_at) / RFU KRTAP10-2 (11738614_at) / Fold change /veh KRTAP10-2 (11738614_at) / RFU ARHGAP8 /// PRR5-ARHGAP8 (11727945_x_at) / Fold change /veh ARHGAP8 /// PRR5-ARHGAP8 (11727945_x_at) / RFU KRTAP5-7 /// NADSYN1 (11734609_at) / Fold change /veh KRTAP5-7 /// NADSYN1 (11734609_at) / RFU RASL12 (11751679_a_at) / Fold change /veh RASL12 (11751679_a_at) / RFU CDKN2B (11736163_a_at) / Fold change /veh CDKN2B (11736163_a_at) / RFU PRF1 (11729649_at) / Fold change /veh PRF1 (11729649_at) / RFU, ZNF638 /// ZNF638-IT1 / Fold change vs veh, ZNF638 /// ZNF638-IT1 / RFU, PANK3 / Fold change vs veh, PANK3 / RFU, SH3YL1 / Fold change vs veh, SH3YL1 / RFU, ZEB2 / Fold change vs veh, ZEB2 / RFU, NRIP1 / Fold change vs veh, NRIP1 / RFU, PTTG1IP / Fold change vs veh, PTTG1IP / RFU, CAPN2 / Fold change vs veh, CAPN2 / RFU, MED14 / Fold change vs veh, MED14 / RFU, SNORA58 / Fold change vs veh, SNORA58 / RFU, C1orf63 / Fold change vs veh, C1orf63 / RFU, LRRFIP1 / Fold change vs veh, LRRFIP1 / RFU, NDUFAF7 / Fold change vs veh, NDUFAF7 / RFU, SLC12A2 / Fold change vs veh, SLC12A2 / RFU, IBTK / Fold change vs veh, IBTK / RFU, ESF1 / Fold change vs veh, ESF1 / Fold change vs veh, TMEM50B / RFU, TAOK1 / Fold change vs veh, TAOK1 / RFU, ACBD3 / Fold change vs veh, ACBD3 / RFU, TMA16 / Fold change vs veh, TMA16 / RFU, RWDD3 / Fold change vs veh, RWDD3 / RFU, BCAT1 / Fold change vs veh, BCAT1 / RFU, EDEM3 / Fold change vs veh, EDEM3 / RFU, TMEM33 / Fold change vs veh, TMEM33 / RFU, WDR75 / Fold change vs veh, WDR75 / RFU, AHCTF1 / Fold change vs veh, AHCTF1 / RFU, TFRC / Fold change vs veh, TFRC / RFU, ZDHHC17 / Fold change vs veh, ZDHHC17 / RFU, NOM1 / Fold change vs veh, NOM1 / RFU, ARL8B / Fold change vs veh, ARL8B / RFU, ZBTB11 / Fold change vs veh, ZBTB11 / RFU, TAMM41 / Fold change vs veh, TAMM41 / RFU, KIAA1704 /// LOC100996395 / Fold change vs veh, KIAA1704 /// LOC100996395 / RFU, ING1 / Fold change vs veh, ING1 / RFU, TRMT61B / Fold change vs veh, TRMT61B / RFU, FUBP3 / Fold change vs veh, FUBP3 / RFU, TP53 / Fold change vs veh, TP53 / RFU, TNKS2 / Fold change vs veh, TNKS2 / RFU, ZFP14 / Fold change vs veh, ZFP14 / RFU, ACTR2 / Fold change vs veh, ACTR2 / RFU, PPP3R1 / Fold change vs veh, PPP3R1 / RFU, PIK3R1 / Fold change vs veh, PIK3R1 / RFU, HNRNPA1 / Fold change vs veh, HNRNPA1 / RFU, RNF170 / Fold change vs veh, RNF170 / RFU, ZNF28 / Fold change vs veh, ZNF28 / RFU, RNGTT / Fold change vs veh, RNGTT / RFU, OGT / Fold change vs veh, OGT / RFU, BRD1 / Fold change vs veh, BRD1 / RFU, MARS / Fold change vs veh, MARS / RFU, ZNF655 / Fold change vs veh, ZNF655 / RFU, FAHD1 / Fold change vs veh, FAHD1 / RFU, BDP1 / Fold change vs veh, BDP1 / RFU, LRRCC1 / Fold change vs veh, LRRCC1 / RFU, ARID1A / Fold change vs veh, ARID1A / RFU, ZNF146 / Fold change vs veh, ZNF146 / RFU, ZNF330 / Fold change vs veh, ZNF330 / RFU, GPN3 / Fold change vs veh, GPN3 / RFU, C9orf123 / Fold change vs veh, C9orf123 / RFU, N4BP2L2 / Fold change vs veh, N4BP2L2 / RFU, ARFIP1 / Fold change vs veh, ARFIP1 / RFU, FAM179B / Fold change vs veh, FAM179B / RFU, BCL10 / Fold change vs veh, BCL10 / RFU, UHRF1BP1L / Fold change vs veh, UHRF1BP1L / RFU, BET1 / Fold change vs veh, BET1 / RFU, CNOT2 / Fold change vs veh, CNOT2 / RFU, ZNF268 / Fold change vs veh, ZNF268 / Fold change vs veh, ZNF507 / RFU, DGCR2 / Fold change vs veh, DGCR2 / RFU, WDSUB1 / Fold change vs veh, WDSUB1 / Fold change vs veh, HSP90B1 /// MIR3652 / RFU, ADSS / Fold change vs veh, ADSS / RFU, GK / Fold change vs veh, GK / RFU, ZNF148 / Fold change vs veh, ZNF148 / RFU, TAF9 / Fold change vs veh, TAF9 / RFU, SLC1A5 / Fold change vs veh, SLC1A5 / RFU, SLMO2 / Fold change vs veh, SLMO2 / RFU, ABCC4 / Fold change vs veh, ABCC4 / RFU, LOC101060439 /// RAP1B / Fold change vs veh, LOC101060439 /// RAP1B / RFU, RFX7 / Fold change vs veh, RFX7 / RFU, GTPBP10 / Fold change vs veh, GTPBP10 / RFU, CNEP1R1 / Fold change vs veh, CNEP1R1 / RFU, BIVM-ERCC5 /// ERCC5 / Fold change vs veh, BIVM-ERCC5 /// ERCC5 / RFU, ILF3 / Fold change vs veh, ILF3 / RFU 11762660_at / Fold change /veh 11762660_at / RFU VCAN (11757783_s_at) / Fold change /veh VCAN (11757783_s_at) / RFU DDX43 (11728927_at) / Fold change /veh DDX43 (11728927_at) / RFU KRT8 (11758188_x_at) / Fold change /veh KRT8 (11758188_x_at) / RFU NKD1 (11759106_at) / Fold change /veh NKD1 (11759106_at) / RFU SRD5A1 (11742802_a_at) / Fold change /veh SRD5A1 (11742802_a_at) / RFU TPSAB1 /// TPSB2 (11721975_s_at) / Fold change /veh TPSAB1 /// TPSB2 (11721975_s_at) / RFU GSTM3 (11746129_a_at) / Fold change /veh GSTM3 (11746129_a_at) / RFU IL23R (11737362_x_at) / Fold change /veh IL23R (11737362_x_at) / RFU TMEM51 (11727254_a_at) / Fold change /veh TMEM51 (11727254_a_at) / RFU PIWIL2 (11732686_x_at) / Fold change /veh PIWIL2 (11732686_x_at) / RFU ORM1 (11744905_x_at) / Fold change /veh ORM1 (11744905_x_at) / RFU CCDC152 (11743942_at) / Fold change /veh CCDC152 (11743942_at) / RFU ECM1 (11717891_a_at) / Fold change /veh ECM1 (11717891_a_at) / RFU IL23R (11748794_a_at) / Fold change /veh IL23R (11748794_a_at) / RFU TNFAIP8L3 (11732012_x_at) / Fold change /veh TNFAIP8L3 (11732012_x_at) / RFU MBOAT4 (11741988_at) / Fold change /veh MBOAT4 (11741988_at) / RFU 11764193_at / Fold change /veh 11764193_at / RFU TMEM53 (11763286_at) / Fold change /veh TMEM53 (11763286_at) / RFU MAGEB2 (11727129_at) / Fold change /veh MAGEB2 (11727129_at) / RFU TMEM200A (11744735_a_at) / Fold change /veh TMEM200A (11744735_a_at) / RFU CCDC152 (11751479_a_at) / Fold change /veh CCDC152 (11751479_a_at) / RFU FAM211A (11726209_a_at) / Fold change /veh FAM211A (11726209_a_at) / RFU RGS16 (11746705_a_at) / Fold change /veh RGS16 (11746705_a_at) / RFU VCAN (11755009_s_at) / Fold change /veh VCAN (11755009_s_at) / RFU RHOB (11743442_s_at) / Fold change /veh RHOB (11743442_s_at) / RFU RGS16 (11720943_a_at) / Fold change /veh RGS16 (11720943_a_at) / RFU RGS16 (11720944_at) / Fold change /veh RGS16 (11720944_at) / RFU, VPS4B / Fold change vs veh, VPS4B / RFU, CREB1 / Fold change vs veh, CREB1 / RFU, DNAJC13 / Fold change vs veh, DNAJC13 / RFU, GNAQ / Fold change vs veh, GNAQ / RFU, CDK5R1 / Fold change vs veh, CDK5R1 / RFU, ZRANB3 / Fold change vs veh, ZRANB3 / RFU, CUL4A / Fold change vs veh, CUL4A / RFU, CCNY / Fold change vs veh, CCNY / RFU, UFL1 / Fold change vs veh, UFL1 / RFU, COG3 / Fold change vs veh, COG3 / RFU, DIAPH2 / Fold change vs veh, DIAPH2 / RFU, SKA2 / Fold change vs veh, SKA2 / RFU, AFF3 / Fold change vs veh, AFF3 / RFU, LMF1 / Fold change vs veh, LMF1 / RFU, IPO11 / Fold change vs veh, IPO11 / RFU, DFFB / Fold change vs veh, DFFB / RFU, FOXP1 / Fold change vs veh, FOXP1 / RFU, CARD8 / Fold change vs veh, CARD8 / RFU, STRN3 / Fold change vs veh, STRN3 / RFU, ADK / Fold change vs veh, ADK / RFU, RASSF2 / Fold change vs veh, RASSF2 / RFU, WIPF1 / Fold change vs veh, WIPF1 / RFU, LARP1B / Fold change vs veh, LARP1B / RFU, RASA1 / Fold change vs veh, RASA1 / RFU, RB1 / Fold change vs veh, RB1 / RFU, PPFIA1 / Fold change vs veh, PPFIA1 / RFU, MAT2A / Fold change vs veh, MAT2A / RFU, CCT5 / Fold change vs veh, CCT5 / RFU, WDR92 / Fold change vs veh, WDR92 / RFU, CUX1 / Fold change vs veh, CUX1 / RFU, TTC7A / Fold change vs veh, TTC7A / RFU, TMEM135 / Fold change vs veh, TMEM135 / RFU, DEPTOR / Fold change vs veh, DEPTOR / RFU, CPM / Fold change vs veh, CPM / RFU, DNAJB6 / Fold change vs veh, DNAJB6 / RFU, CACNA2D3 / Fold change vs veh, CACNA2D3 / RFU, DTX4 / Fold change vs veh, DTX4 / RFU, TFCP2 / Fold change vs veh, TFCP2 / RFU, GMCL1 /// GMCL1P1 / Fold change vs veh, GMCL1 /// GMCL1P1 / RFU, AEBP2 / Fold change vs veh, AEBP2 / RFU, SNHG1 /// SNORD22 /// SNORD25 /// SNORD26 /// SNORD27 /// SNORD28 /// SNORD29 /// SNORD31 / Fold change vs veh, SNHG1 /// SNORD22 /// SNORD25 /// SNORD26 /// SNORD27 /// SNORD28 /// SNORD29 /// SNORD31 / Fold change (Aza/veh), C12orf56 (ProbeSet 11735607_a_at) / Fold change (ACY-1035/veh), C12orf56 (ProbeSet 11735607_a_at) / Fold change (Aza/veh), FGFR1OP (ProbeSet 11751329_s_at) / Fold change (ACY-1035/veh), FGFR1OP (ProbeSet 11751329_s_at) / Fold change (Aza/veh), VPS36 (ProbeSet 11739960_a_at) / Fold change (ACY-1035/veh), VPS36 (ProbeSet 11739960_a_at) / RFU SYPL1 (11715823_x_at) / Fold change /veh SYPL1 (11715823_x_at) / RFU IGFBP7 (11715501_s_at) / Fold change /veh IGFBP7 (11715501_s_at) / RFU REEP3 (11722064_at) / Fold change /veh REEP3 (11722064_at) / RFU IGLL1 (11728026_x_at) / Fold change /veh IGLL1 (11728026_x_at): dose or concentration left out as unconfirmed
Details: MV-4-11 cells, 48 hours

Nc1ncn([C@@H]2O[C@H](CO)[C@@H](O)[C@H]2O)c(=O)n1 [azacitidine]
RFU LINC00158 (11744669_a_at): 7.44 RFU

Source: article PMC5218480 (PLoS ONE, 2017)
